Assay results from ChEMBL document CHEMBL2429834, “Potent histone deacetylase inhibitors derived from 4-(aminomethyl)-N-hydroxybenzamide with high selectivity for the HDAC6 isoform” (J Med Chem, 2013).

Experiments:
[1] = target: T1, Protein deacetylase HDAC6 (Homo sapiens, UniProt Q9UBN7); assay: Inhibition of HDAC6 in human HeLa cells using acetyl tubulin as substrate assessed as Ac-tubulin accumulation in cytosol after 6 hrs by immunofluorescence assay
T1 sequence (Q9UBN7 whole entry): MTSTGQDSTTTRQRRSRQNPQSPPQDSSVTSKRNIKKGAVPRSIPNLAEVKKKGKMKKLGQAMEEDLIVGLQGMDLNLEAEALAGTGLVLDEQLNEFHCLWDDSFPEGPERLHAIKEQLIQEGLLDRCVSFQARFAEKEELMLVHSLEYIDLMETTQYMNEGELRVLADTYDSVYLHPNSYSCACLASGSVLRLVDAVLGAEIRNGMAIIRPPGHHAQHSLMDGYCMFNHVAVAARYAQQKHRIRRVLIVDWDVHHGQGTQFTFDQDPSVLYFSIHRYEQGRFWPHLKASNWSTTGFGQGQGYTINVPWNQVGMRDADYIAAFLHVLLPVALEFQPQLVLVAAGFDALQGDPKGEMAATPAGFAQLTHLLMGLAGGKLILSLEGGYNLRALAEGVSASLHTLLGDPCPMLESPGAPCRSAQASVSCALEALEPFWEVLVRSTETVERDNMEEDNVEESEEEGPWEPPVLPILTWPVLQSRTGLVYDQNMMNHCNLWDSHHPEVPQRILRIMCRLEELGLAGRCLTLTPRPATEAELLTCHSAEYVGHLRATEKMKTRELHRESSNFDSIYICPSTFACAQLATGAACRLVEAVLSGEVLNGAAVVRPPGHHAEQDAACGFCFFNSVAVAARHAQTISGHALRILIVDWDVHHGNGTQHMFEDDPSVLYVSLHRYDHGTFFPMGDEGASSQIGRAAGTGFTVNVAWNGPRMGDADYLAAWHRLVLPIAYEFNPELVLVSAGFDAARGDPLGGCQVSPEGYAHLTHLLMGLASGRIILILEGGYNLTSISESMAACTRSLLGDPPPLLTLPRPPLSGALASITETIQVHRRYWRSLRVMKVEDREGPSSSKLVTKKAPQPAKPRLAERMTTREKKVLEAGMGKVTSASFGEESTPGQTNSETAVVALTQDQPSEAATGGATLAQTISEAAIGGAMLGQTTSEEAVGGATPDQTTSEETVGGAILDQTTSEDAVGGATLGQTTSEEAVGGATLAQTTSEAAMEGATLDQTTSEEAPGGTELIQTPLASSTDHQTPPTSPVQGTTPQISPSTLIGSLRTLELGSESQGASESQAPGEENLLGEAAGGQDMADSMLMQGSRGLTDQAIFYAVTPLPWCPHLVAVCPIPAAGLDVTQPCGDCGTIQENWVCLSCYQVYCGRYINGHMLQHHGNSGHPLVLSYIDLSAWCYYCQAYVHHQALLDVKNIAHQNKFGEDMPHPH

[2] = target: Histone deacetylase 1 (Homo sapiens, UniProt Q13547); assay: Inhibition of full length GST-tagged recombinant human HDAC1 expressed in baculovirus using Arg-His-Lys-Lys (Ac) as substrate after 2 hrs by fluorescence plate reader analysis
Histone deacetylase 1, sequence (Q13547 whole entry): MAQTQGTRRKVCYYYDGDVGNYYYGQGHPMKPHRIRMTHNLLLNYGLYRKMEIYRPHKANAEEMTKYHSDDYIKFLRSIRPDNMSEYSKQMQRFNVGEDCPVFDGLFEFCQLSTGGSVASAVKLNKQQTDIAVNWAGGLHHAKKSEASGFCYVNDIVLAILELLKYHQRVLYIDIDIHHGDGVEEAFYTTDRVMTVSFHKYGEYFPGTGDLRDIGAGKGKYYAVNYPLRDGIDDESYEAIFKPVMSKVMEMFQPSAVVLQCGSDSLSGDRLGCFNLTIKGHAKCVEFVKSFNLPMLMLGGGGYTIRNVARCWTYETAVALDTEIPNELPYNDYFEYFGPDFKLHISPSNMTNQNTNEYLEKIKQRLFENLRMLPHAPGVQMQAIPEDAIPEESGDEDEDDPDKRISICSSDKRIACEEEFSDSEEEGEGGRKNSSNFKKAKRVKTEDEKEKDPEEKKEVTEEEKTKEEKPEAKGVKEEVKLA

[3] = target: T1, Protein deacetylase HDAC6; assay: Inhibition of N-terminal GST-tagged recombinant HDAC6 (unknown origin) assessed as deacetylation of Ac-Arg-Gly-Lys (Ac) after 1 hr by fluorescence plate reader analysis in presence of trypsin
[4] = target: T2, Histone deacetylase 7 (Homo sapiens, UniProt Q8WUI4); assay: Inhibition of N-terminal GST-tagged recombinant human HDAC7 (518) expressed in baculovirus using acetyl-Lys(trifluoroacetyl)-AMC as substrate after 1 hr by fluorescence plate reader analysis
T2 sequence (Q8WUI4 whole entry): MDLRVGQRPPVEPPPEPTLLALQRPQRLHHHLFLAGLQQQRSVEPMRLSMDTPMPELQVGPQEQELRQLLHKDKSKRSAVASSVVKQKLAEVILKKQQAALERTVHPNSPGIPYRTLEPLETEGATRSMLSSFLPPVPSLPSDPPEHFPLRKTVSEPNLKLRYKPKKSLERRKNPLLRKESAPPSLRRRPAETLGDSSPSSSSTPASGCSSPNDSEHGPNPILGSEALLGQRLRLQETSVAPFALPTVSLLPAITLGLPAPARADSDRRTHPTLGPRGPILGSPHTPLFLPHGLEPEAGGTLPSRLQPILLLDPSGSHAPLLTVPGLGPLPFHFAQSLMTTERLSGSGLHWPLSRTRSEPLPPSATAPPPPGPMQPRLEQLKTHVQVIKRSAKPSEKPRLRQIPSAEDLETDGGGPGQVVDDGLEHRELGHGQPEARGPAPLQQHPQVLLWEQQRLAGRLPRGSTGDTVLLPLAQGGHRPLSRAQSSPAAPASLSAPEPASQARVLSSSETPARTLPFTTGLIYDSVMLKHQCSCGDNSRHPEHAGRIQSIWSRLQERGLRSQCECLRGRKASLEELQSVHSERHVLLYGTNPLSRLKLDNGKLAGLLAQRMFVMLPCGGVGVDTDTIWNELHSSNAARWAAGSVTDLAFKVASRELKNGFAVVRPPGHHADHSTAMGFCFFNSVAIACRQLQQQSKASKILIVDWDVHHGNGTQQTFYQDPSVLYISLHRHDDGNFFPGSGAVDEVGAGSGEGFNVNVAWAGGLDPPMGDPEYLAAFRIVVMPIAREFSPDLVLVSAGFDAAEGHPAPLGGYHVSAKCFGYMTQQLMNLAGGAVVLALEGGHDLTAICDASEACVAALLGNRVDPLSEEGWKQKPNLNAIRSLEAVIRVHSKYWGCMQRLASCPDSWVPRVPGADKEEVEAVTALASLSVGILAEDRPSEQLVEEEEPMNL

[5] = target: Histone deacetylase 3 (Homo sapiens, UniProt O15379); assay: Inhibition of full length C-terminal His6x-tagged recombinant human HDAC3 expressed in baculovirus using Arg-His-Lys-Lys (Ac) as substrate after 2 hrs by fluorescence plate reader analysis
Histone deacetylase 3, sequence (O15379 whole entry): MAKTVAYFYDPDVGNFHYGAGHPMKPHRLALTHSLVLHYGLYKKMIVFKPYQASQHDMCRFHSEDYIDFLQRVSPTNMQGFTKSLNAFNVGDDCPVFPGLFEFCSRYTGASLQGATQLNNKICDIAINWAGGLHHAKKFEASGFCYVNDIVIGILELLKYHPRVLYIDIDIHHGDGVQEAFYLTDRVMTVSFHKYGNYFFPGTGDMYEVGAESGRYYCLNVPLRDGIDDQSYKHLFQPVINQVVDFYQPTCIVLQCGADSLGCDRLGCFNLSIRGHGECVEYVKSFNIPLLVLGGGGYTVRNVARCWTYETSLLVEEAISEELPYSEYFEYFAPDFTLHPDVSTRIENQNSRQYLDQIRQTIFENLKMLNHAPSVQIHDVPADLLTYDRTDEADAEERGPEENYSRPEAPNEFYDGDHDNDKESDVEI

[6] = Kinetic solubility of the compound in potassium phosphate buffer at pH 6.8 by turbidometric analysis; format: physicochemical; conditions: read-out: Kinetic_solubility

IC50 [1]	IC50 [2]	IC50 [3]	IC50 [4]	IC50 [5]	solubility kinetic [6]	SMILES
340 nM	> 50000 nM	40 nM	> 50000 nM	> 50000 nM	> 200 µM	Cn1cccc1C(=O)N1Cc2ccc(C(=O)NO)cc2C1
1480 nM	> 50000 nM	260 nM	> 50000 nM	> 50000 nM	> 200 µM	Cn1cccc1C(=O)N1CCCc2cc(C(=O)NO)ccc2C1
460 nM	5800 nM	19 nM	4600 nM	4500 nM	> 200 µM	Cn1cccc1C(=O)NCc1ccc(C(=O)NO)cc1
430 nM	> 50000 nM	52 nM	> 50000 nM	> 50000 nM	> 200 µM	CC(C)(C)C(=O)N1CCc2cc(C(=O)NO)ccc2C1
560 nM	> 50000 nM	89 nM	> 50000 nM	> 50000 nM	> 200 µM	CC(C)(C)C(=O)N1Cc2ccc(C(=O)NO)cc2C1
210 nM	45000 nM	36 nM	> 50000 nM	46000 nM	> 200 µM	Cn1cccc1C(=O)N1CCc2cc(C(=O)NO)ccc2C1
